Assay results reported in patent US7897369B2, “Isoprenoid wax ester synthases, isoprenoid acyl CoA-synthetases, and uses thereof” (Regents of the University of Minnesota, priority 2007, dated 2011).
“Also recorded” adds a separate entry of the source.

Columns and labels:
[1] = tested on: WS1; test: Coupled enzyme assay, WS substrate profile (TLC); assay type: biochemical, Marinobacter hydrocarbonoclasticus DSM 8798; conditions: coupled reaction; palmitic acid with hexadecanol, phytanic acid with phytol, phytanoyl-CoA with the alcohols named in the value
Procedure: (§1) Stock solutions of various substrates were prepared in 50 mM Tris-HCl buffer (pH 8) containing 1% gum arabic, 12.5 μg bovine serum albumin ml^−1, 0.1% taurocholate, and either 100 mM fatty acid, isoprenoid acid, fatty alcohol, or isoprenoid alcohol. Stock solutions were sonicated to disperse the substrates. Substrate profiles of the three WS were tested using coupled enzyme in vitro reactions in which the CoA synthetases Acs1 and Acs2 are added to synthesize the CoA-activated fatty acid phytanic acid substrates from corresponding acid precursors for the WS reactions. Assays were carried out in 500-μl reactions containing in 50 mM Tris-HCl buffer (pH 8.0), 12.5 μl of each acid, and alcohol substrate stock solution (final concentrations of each substrate of 250 μM), 10 mM MgCl2, 10 mM CoASH, 10 mM ATP, 5 mM TCEP, 0.1 U of inorganic pyrophosphatase, 0.25 μg of Acs1 and Acs2 CoA synthetase, and 0.5 μg of WS to be tested. Assays were incubated at 37° C. overnight before thin-layer chromatography (TLC) analysis of the reaction products.
(§2) In vitro WS assay samples were extracted with 500 μl of chloroformmethanol (1:1 [vol/vol]), and extracts were analyzed by TLC with Whatman normal phase silica gel 60 plates and developed using hexane-diethyl ether-acetic acid (90:10:1 [vol/vol/vol]). TLC plates were stained with either iodine vapor or anisaldehyde solution as described earlier (Jork et al., 1990. Thin-layer chromatography reagents and detection methods, vol. 1a. Physical and chemical detection methods: fundamentals, reagents. VHC, Weinheim, Germany). Palmitoyl palmitate and triolein were used as WE and TAG reference compounds, respectively.

[2] = target: T1, WS2 (Marinobacter nauticus, UniProt A3RE51); test: Coupled enzyme assay, WS substrate profile (TLC); assay type: biochemical, Marinobacter hydrocarbonoclasticus DSM 8798; conditions: coupled reaction; palmitic acid with hexadecanol, phytanic acid with phytol, phytanoyl-CoA with the alcohols named in the value
Procedure: as §1, §2

[3] = target: T1, WS2; test: Kinetic WS assay, spectrophotometric (CoA release, DTNB); assay type: biochemical, Marinobacter hydrocarbonoclasticus DSM 8798; conditions: for Acyl-CoA specificity of WS2: hexadecanol as acyl acceptor, both substrates 1 mM
Procedure: Assay reactions were preincubated at 37° C. for 5 min before the reactions were started by the addition of enzyme. Heat-denatured enzyme (99° C. for 15 min) was used as a negative control.
Acyl-CoA and fatty/isoprenoid alcohol specificity of WS2 was determined in the same manner as described for the kinetic WS assay with assumed saturating conditions containing both the fatty/isoprenoid alcohol and acyl-CoA substrates at a concentration of 1 mM. Acyl-CoA specificity was measured with hexadecanol as acyl acceptor, whereas palmitoyl-CoA was used as acyl donor to determine alcohol specificity.
A spectrophotometric assay was developed to determine the kinetic properties of WS1 and WS2. […] The specific activities of WS1, WS2, and Acinetobacter WS/DGAT were measured with palmitoyl-CoA and hexadecanol, palmitoyl-CoA and phytol, and phytanoyl-CoA and phytol. Phytanoyl-CoA for these assays was enzymatically synthesized from phytanic acid and CoA using the above-characterized isoprenoid/acyl-CoA synthetase Acs2.

[4] = target: T2, Acinetobacter WS/DGAT (Acinetobacter baylyi, UniProt Q8GGG1); test: as above; assay type: biochemical
T2 construct: His6 (N); made in house
T2 sequence (Q8GGG1 1-458): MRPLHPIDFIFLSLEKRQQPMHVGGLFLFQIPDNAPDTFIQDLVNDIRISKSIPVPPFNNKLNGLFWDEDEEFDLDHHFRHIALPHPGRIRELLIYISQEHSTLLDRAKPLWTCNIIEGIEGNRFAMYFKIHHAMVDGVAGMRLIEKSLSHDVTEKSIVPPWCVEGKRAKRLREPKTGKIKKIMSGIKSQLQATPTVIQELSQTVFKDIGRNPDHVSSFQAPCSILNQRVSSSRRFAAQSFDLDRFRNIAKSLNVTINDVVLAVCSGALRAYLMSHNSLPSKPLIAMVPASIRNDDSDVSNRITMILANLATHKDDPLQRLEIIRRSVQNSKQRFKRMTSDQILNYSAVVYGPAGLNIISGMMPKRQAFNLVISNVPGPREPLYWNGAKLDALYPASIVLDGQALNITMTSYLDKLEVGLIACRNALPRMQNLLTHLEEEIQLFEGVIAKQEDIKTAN
Procedure: (§3) WS activity was determined by monitoring CoA release using Ellman's reagent [5,5′-dithio-bis(2-nitrobenzoic acid); DTNB] at 412 nm (ε=13,600 M^−1 cm^−1) (Ellman, 1959. Arch. Biochem. Biophys. 82:70-77). Kinetic in vitro assays were performed in triplicate in 125 mM sodium phosphate buffer (pH 7.4) containing 0.1% Tergitol NP-11 detergent, 10 mM MgCl2, 1 mM DNTB, 250 μM palmitoyl-CoA, 1 to 250 μM hexadecanol, and 0.5 μg of WS enzyme. Assay reactions were preincubated at 37° C. for 5 min before the reactions were started by the addition of enzyme. Heat-denatured enzyme (99° C. for 15 min) was used as a negative control.
(§4) Acyl-CoA and fatty/isoprenoid alcohol specificity of WS2 was determined in the same manner as described for the kinetic WS assay with assumed saturating conditions containing both the fatty/isoprenoid alcohol and acyl-CoA substrates at a concentration of 1 mM. Acyl-CoA specificity was measured with hexadecanol as acyl acceptor, whereas palmitoyl-CoA was used as acyl donor to determine alcohol specificity. Isoprenoid WS activity of WS2 was determined with 250 μM HPLC purified phytanoyl-CoA and 250 μM phytol as substrates.
(§5) A spectrophotometric assay was developed to determine the kinetic properties of WS1 and WS2. The concentration of sulfhydryl groups of CoA released during the condensation reaction between fatty/isoprenoid CoA activated acids and alcohols was determined by using Ellman's reagent (DTNB) (Ellman, 1959. Arch. Biochem. Biophys. 82:70-77). The specific activities of WS1, WS2, and Acinetobacter WS/DGAT were measured with palmitoyl-CoA and hexadecanol, palmitoyl-CoA and phytol, and phytanoyl-CoA and phytol. Phytanoyl-CoA for these assays was enzymatically synthesized from phytanic acid and CoA using the above-characterized isoprenoid/acyl-CoA synthetase Acs2.

[5] = tested on: WS1; test: as above; assay type: biochemical, Marinobacter hydrocarbonoclasticus DSM 8798
Procedure: as §3, §4, §5

[6] = target: T1, WS2; test: WS2 kinetics on ethanol and oleoyl-CoA (DTNB); assay type: biochemical, Marinobacter hydrocarbonoclasticus
Procedure: (§6) […] Assay reactions were pre-incubated at 37° C. for 5 minutes before the reactions were started by the addition of enzyme.

[7] = substrate: CCCCCCCCCCCCCCCCO; test: Kinetic WS assay, spectrophotometric (CoA release, DTNB); assay type: biochemical, Marinobacter hydrocarbonoclasticus DSM 8798; conditions: other: saturating palmitoyl-CoA (250 μM), various concentrations of hexadecanol; pH 7.4
[8] = substrate: CCCCCCCC/C=C\CCCCCCCC(=O)SCCNC(=O)CCNC(=O)[C@H](O)C(C)(C)COP(=O)(O)OP(=O)(O)OC[C@H]1O[C@@H](n2cnc3c(N)ncnc32)[C@H](O)[C@@H]1OP(=O)(O)O; test: WS2 kinetics on ethanol and oleoyl-CoA (DTNB); assay type: biochemical, Marinobacter hydrocarbonoclasticus; conditions: other: steady state; varied substrate 10 μM-250 μM, other substrate (oleoyl-CoA or ethanol) 500 μM; pH 7.2; 37.0 °C
Procedure: as §6

[9] = co-substrate hexadecanol (C16), listed as palmitoyl-CoA
[10] = steady state, varied substrate 10 μM-250 μM, other substrate (oleoyl-CoA or ethanol) 500 μM

For CC(C)CCCC(C)CCCC(C)CCCC(C)CC(=O)SCCNC(=O)CCNC(=O)[C@H](O)C(C)(C)COP(=O)(O)OP(=O)(O)OC[C@H]1O[C@@H](n2cnc3c(N)ncnc32)[C@H](O)[C@@H]1OP(=O)(O)O (some centres unmarked) [Phytanoyl-CoA], the “WE product formation by WS1 (TLC), in words” value [1] was “fatty alcohols were not condensed to phytanoyl-CoA; also recorded: produced isoprenoid WEs from phytanoyl-CoA and the isoprenoid alcohols phytol and farnesol”, the “WE product formation by WS2 (TLC), in words” value [2] was “fatty alcohols were not condensed to phytanoyl-CoA; also recorded: produced isoprenoid WEs from phytanoyl-CoA and the isoprenoid alcohols phytol and farnesol” and the “Mean sp act ± SD of Marinobacter WS2” value ([3]; co-substrate phytol) was 0.397 ± 0.099 mmol/min/mg. The “Mean sp act ± SD of Marinobacter WS2” value ([3]; co-substrate phytol, listed as phytanoyl-CoA) was 0.397 mmol/min/mg.

CCCCCCCCCCCCCCCC(=O)SCCNC(=O)CCNC(=O)[C@H](O)C(C)(C)COP(=O)(O)OP(=O)(O)OC[C@H]1O[C@@H](n2cnc3c(N)ncnc32)[C@H](O)[C@@H]1OP(=O)(O)O [Palmitoyl-CoA, palmitoyl-CoA (C16:0)] was tested, and the “Mean sp act ± SD of Acinetobacter WS/DGAT” value ([4]; co-substrate hexadecanol (C16)) was 0.389 ± 0.039 mmol/min/mg, the “Mean sp act ± SD of Acinetobacter WS/DGAT” value [4, 9] was 0.38 mmol/min/mg and the “Mean sp act ± SD of Acinetobacter WS/DGAT” value ([4]; co-substrate phytol) was 0.138 ± 0.003 mmol/min/mg. The “Mean sp act ± SD of Marinobacter WS1” value ([5]; co-substrate hexadecanol (C16)) was 1.338 ± 0.5 mmol/min/mg, the “Mean sp act ± SD of Marinobacter WS1” value [5, 9] was 1.3 mmol/min/mg and the “Mean sp act ± SD of Marinobacter WS1” value ([5]; co-substrate phytol) was 0.152 ± 0.011 mmol/min/mg. For the same molecule, the “Mean sp act ± SD of Marinobacter WS2” value ([3]; co-substrate hexadecanol (C16)) was 61.323 ± 1.79 mmol/min/mg, the “Mean sp act ± SD of Marinobacter WS2” value [3, 9] was 61 mmol/min/mg and the “Mean sp act ± SD of Marinobacter WS2” value ([3]; co-substrate phytol) was 28.872 ± 2.13 mmol/min/mg. For the same molecule, the “Acyl-CoA specificity of WS2” value [3] was “clear preference” and the “WS2 more active than WS1 or Acinetobacter WS/DGAT in creating the hybrid WE” value ([3]; palmitoyl-CoA and phytol as substrates) was 20 fold.

In the case of CCCCCCCCCCCCCCCCCC(=O)SCCNC(=O)CCNC(=O)[C@H](O)C(C)(C)COP(=O)(O)OP(=O)(O)OC[C@H]1O[C@@H](n2cnc3c(N)ncnc32)[C@H](O)[C@@H]1OP(=O)(O)O [stearoyl-CoA, stearoyl-CoA (C18:0)], the “Acyl-CoA specificity of WS2” value [3] is reported as “readily accepted”.

CCO [Ethanol] was tested, and the “Kcat of WS2” value ([6]; steady state on ethanol and oleoyl-CoA) was 32 s⁻¹, the Km [6, 10] was 17 µM and the “Vmax of WS2” value [6, 10] was 1250 μmol (mg/min)^−1.

CCCCCCCCCCCCCCCCCCCC(=O)SCCNC(=O)CCNC(=O)[C@H](O)C(C)(C)COP(=O)(O)OP(=O)(O)OC[C@H]1O[C@@H](n2cnc3c(N)ncnc32)[C@H](O)[C@@H]1OP(=O)(O)O [arachidoyl-CoA, arachidoyl-CoA (C20:0)] was tested, and the “Acyl-CoA specificity of WS2” value [3] was “readily accepted”.

B1: WS2 (Marinobacter nauticus) (protein)
chain: MKRLGTLDASWLAVESEDTPMHVGTLQIFSLPEGAPETFLRDMVTRMKEAGDVAPPWGYKLAWSGFLGRVIAPAWKVDKDIDLDYHVRHSALPRPGGERELGILVSRLHSNPLDFSRPLWECHVIEGLENNRFALYTKMHHSMIDGISGVRLMQRVLTTDPERCNMPPPWTVRPHQRRGAKTDKEASVPAAVSQAMDALKLQADMAPRLWQAGNRLVHSVRHPEDGLTAPFTGPVSVLNHRVTAQRRFATQHYQLDRLKNLAHASGGSLNDIVLYLCGTALRRFLAEQNNLPDTPLTAGIPVNIRPADDEGTGTQISFMIASLATDEADPLNRLQQIKTSTRRAKEHLQKLPKSALTQYTMLLMSPYILQLMSGLGGRMRPVFNVTISNVPGPEGTLYYEGARLEAMYPVSLIAHGGALNITCLSYAGSLNFGFTGCRDTLPSMQKLAVYTGEALDELESLILPPKKRARTRK
B1 was tested, and the Km [7] was 44 µM, the Vmax [7] was 10 mmol/mg/min and the kcat [7] was 4,794 s^−1. The “WS2 more active in vitro in producing acyl ester products than Acinetobacter WS/DGAT” value ([3]; in vitro) was “approximately 150 times”, the Km [8] was 23 µM and the kcat/Km [8] was 2.56 × 10^6 (M^−1 s^−1) M^−1 s^−1.
